{
  "source": "patent US7794723B2",
  "about": "“Antigenic peptides derived from telomerase” (GemVax AS, priority 1998, dated 2010)",
  "key": {"[1]": {"tested_on": "tumor infiltrating lymphocytes (TILs) obtained from a patient with advanced pancreatic cancer", "assay": "Reactivity of tumor infiltrating lymphocytes (TILs), standard proliferation assay", "type": "cell-based, human", "conditions": "CD3+, CD4+, CD8− T cell line", "description": "FIGS. 3 and 4 (FIG. 3 and FIG. 4) show the reactivity of tumor infiltrating lymphocytes (TILs) obtained from a patient with advanced pancreatic cancer. The T cells were obtained from a tumor biopsy and were successfully propagated in vitro to establish a T cell line. The T cell line was CD3+, CD4+ and CD8−, and proliferated specifically in response to the telomerase peptides. The results in FIG. 3 show T cells that recognize the peptides with SEQ ID NOs: 2 and 3 when compared to controls with medium alone. The results in FIG. 4 show T cells that recognize the peptide with SEQ ID NO:2. The TILs were expanded by co-culturing with recombinant human interleukin 2 (rIL-2) and tested after 14 days in standard proliferation assay using peptides with SEQ ID NOs: 2, 3, 4 and 7."}, "[2]": {"tested_on": "hTERT expressing target cells (Jurkat) transfected with HLA-A2 (A2/K^b)", "conditions": "FIG. 1; T cells from mice primed with the peptide; target cells pulsed with control peptide (influenza 58-66); different effector to target ratios; 4 hours"}, "[3]": {"tested_on": "peripheral blood T cells from a patient with colon cancer", "assay": "In vitro stimulation of peripheral blood T cells from a cancer patient, T cell proliferative assay (3H-thymidine)", "type": "cell-based, human", "conditions": "FIG. 2; peptide 30 μg/ml; 10^5 mononuclear cells; cultures without peptide as control", "experimental": "In vitro culture was performed as follows: Triplicates of 105 mononuclear cells were incubated for […] in X-VIVO 10 medium supplemented with 15% pooled heat inactivated human serum in a humidified incubator in 5% CO2. Peptides were present throughout culture at a final concentration of 30 μg/ml in the medium. Cultures without peptide served as control. […] Furthermore, one component of the telomerase specific response in this patient is directed against the peptide with SEQ ID NO:4 described here. […] The figure depicts the results of conventional T cell proliferative assays, where peripheral blood mononuclear cells (10^5) were cultured with peptides as indicated for 7 days in triplicates before harvesting. To measure the proliferative capacity of the cultures, 3H-thymidine (3.7×10^4 Bq/well) was added to the culture overnight before harvesting. Values are given as mean counts per minute (cpm) of the triplicates."}, "[4]": {"conditions": "FIG. 3, compared to controls with medium alone"}},
  "note": "Where no end group is shown, it is not given here.",
  "data": [
    {"sequence": "DGLRPIVNMDYVVGAR [SEQ ID NO:3]", "values": [
      {"measurement": "recognition of peptide by TIL T cells (proliferation)", "setting": "[1]; [4]", "value": "recognize"}
    ]},
    {"sequence": "ILAKFLHWL [SEQ ID NO:9]", "values": [
      {"measurement": "specific cytotoxicity (killing of HLA-A2 transfected Jurkat cells)", "setting": "[2]", "value": "Specific cytotoxicity above background was observed at all effector to target ratios"}
    ]},
    {"sequence": "GVPEYGCVVNLRKVVNF (GVPEYGCVVNLRKTVVNF) [SEQ ID NO:4]", "values": [
      {"measurement": "proliferative response of T cells (3H-thymidine, mean cpm)", "setting": "[3]", "value": "proliferative response above background values"}
    ]},
    {"sequence": "EARPALLTSRLRFIPK [SEQ ID NO:2]", "values": [
      {"measurement": "recognition of peptide by TIL T cells (proliferation)", "setting": "[1]; [4]", "value": "recognize"},
      {"measurement": "recognition of peptide by TIL T cells (proliferation)", "setting": "[1]; FIG. 4", "value": "recognize"}
    ]}
  ]
}
